# Measurements taken from ChEMBL document CHEMBL1147642, “Elimination of antibacterial activities of non-peptide luteinizing hormone-releasing hormone (LHRH) antagonists derived from erythromycin A” (Bioorg Med Chem Lett, 2004).
# How the values were obtained:
# [1] = system: Enterococcus faecium; experiment: Minimum inhibitory activity against Enterococcus faecium ATCC 8043; assay type: functional
# [2] = molecular target: T1, Gonadotropin-releasing hormone receptor (Homo sapiens, UniProt P30968); experiment: Binding affinity against human luteinizing releasing hormone receptor cloned in CHO cells; assay type: cell-based
# T1 sequence (P30968 whole entry): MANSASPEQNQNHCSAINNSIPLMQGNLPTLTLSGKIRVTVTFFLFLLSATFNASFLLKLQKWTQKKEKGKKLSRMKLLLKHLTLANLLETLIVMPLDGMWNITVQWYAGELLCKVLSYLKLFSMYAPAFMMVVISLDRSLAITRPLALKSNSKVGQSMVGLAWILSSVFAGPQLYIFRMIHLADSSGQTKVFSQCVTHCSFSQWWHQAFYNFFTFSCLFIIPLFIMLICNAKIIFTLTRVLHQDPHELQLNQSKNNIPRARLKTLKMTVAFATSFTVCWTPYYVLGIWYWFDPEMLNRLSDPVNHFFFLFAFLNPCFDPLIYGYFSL
# [3] = system: Streptococcus pyogenes; experiment: Minimum inhibitory activity against Streptococcus pyogenes EES61; assay type: functional
# [4] = system: Streptococcus equinus; experiment: Minimum inhibitory activity against Streptococcus bovis A-5169; assay type: functional
# [5] = system: Micrococcus luteus; experiment: Minimum inhibitory activity against Micrococcus luteus ATCC 9341; assay type: functional
# [6] = system: Staphylococcus aureus; experiment: Minimum inhibitory activity against Staphylococcus aureus ATCC 6538P; assay type: functional
# [7] = system: Staphylococcus epidermidis; experiment: Minimum inhibitory activity against Staphylococcus epidermidis 3519; assay type: functional
# [8] = system: Streptococcus agalactiae; experiment: Minimum inhibitory activity against Streptococcus agalactiae CMX 508; assay type: functional
SMILES,MIC [1] [µg/mL],Ki [2] [µM],MIC [3] [µg/mL],MIC [4] [µg/mL],MIC [5] [µg/mL],MIC [6] [µg/mL],MIC [7] [µg/mL],MIC [8] [µg/mL]
CC[C@H]1OC(=O)[C@H](C)[C@@H](OC2C[C@@](C)(OC)[C@@H](O)[C@H](C)O2)[C@H](C)[C@@H](OC2O[C@H](C)C[C@H](N(CC3CC3)CC3CC3)[C@H]2O)[C@@](C)(OC)C[C@@H](C)C(=O)[C@H](C)[C@H]2N(CCc3ccc(F)c(Cl)c3)C(=O)O[C@]12C (some centres undefined),25,0.000851,25,25,25,> 100,> 100,50
CC[C@H]1OC(=O)[C@H](C)[C@@H](OC2C[C@@](C)(OC)[C@@H](O)[C@H](C)O2)[C@H](C)[C@@H](OC2O[C@H](C)C[C@H](N(C)C3CCCC3)[C@H]2O)[C@@](C)(OC)C[C@@H](C)C(=O)[C@H](C)[C@H]2N(CCc3ccc(Cl)c(Cl)c3)C(=O)O[C@]12C (some centres undefined),3.1,0.00151,3.1,3.1,3.1,> 100,> 100,3.1
CC[C@H]1OC(=O)[C@H](C)[C@@H](OC(=O)N2C(=O)OC[C@@H]2C)[C@H](C)[C@@H](OC2O[C@H](C)C[C@H](N(C)CC3CC3)[C@H]2O)[C@@](C)(OC)C[C@@H](C)C(=O)[C@H](C)[C@H]2N(CCc3ccc(Cl)cc3)C(=O)O[C@]12C (some centres undefined),3.1,0.0186,0.78,0.78,12.5,100,> 100,1.56
CC[C@H]1OC(=O)[C@H](C)[C@@H](OC(=O)N2C(=O)OC[C@@H]2C)[C@H](C)[C@@H](OC2O[C@H](C)C[C@H](N(C)C3CCCCC3)[C@H]2O)[C@@](C)(OC)C[C@@H](C)C(=O)[C@H](C)[C@H]2N(CCc3ccc(Cl)c(Cl)c3)C(=O)O[C@]12C (some centres undefined),> 100,0.00724,6.2,6.2,> 100,> 100,> 100,6.2
CC[C@H]1OC(=O)[C@H](C)[C@@H](OC2C[C@@](C)(OC)[C@@H](O)[C@H](C)O2)[C@H](C)[C@@H](OC2O[C@H](C)C[C@H](N(C)C3CCCC3)[C@H]2O)[C@@](C)(OC)C[C@@H](C)C(=O)[C@H](C)[C@H]2N(CCc3ccc(Cl)cc3)C(=O)O[C@]12C (some centres undefined),1.56,0.00759,0.78,0.78,1.56,25,50,0.78
CC[C@H]1OC(=O)[C@H](C)[C@@H](O)[C@H](C)[C@@H](OC2O[C@H](C)C[C@H](N(C)C)[C@H]2O)[C@@](C)(OC)C[C@@H](C)C(=O)[C@H](C)[C@H]2N(CCc3ccc(Cl)cc3)C(=O)O[C@]12C (some centres undefined),1.56,–,–,–,0.78,12.5,12.5,0.02
CC[C@H]1OC(=O)[C@H](C)[C@@H](OC2C[C@@](C)(OC)[C@@H](O)[C@H](C)O2)[C@H](C)[C@@H](OC2O[C@H](C)C[C@H](N(C)C3CCCCC3)[C@H]2O)[C@@](C)(OC)C[C@@H](C)C(=O)[C@H](C)[C@H]2N(CCc3ccc(Cl)cc3)C(=O)O[C@]12C (some centres undefined),25,0.204,0.78,3.1,12.5,> 100,> 100,12.5
CC[C@H]1OC(=O)[C@H](C)[C@@H](OC(=O)N2C(=O)OC[C@@H]2C)[C@H](C)[C@@H](OC2O[C@H](C)C[C@H](N(CC3CC3)CC3CC3)[C@H]2O)[C@@](C)(OC)C[C@@H](C)C(=O)[C@H](C)[C@H]2N(CCc3ccc(Cl)c(Cl)c3)C(=O)O[C@]12C (some centres undefined),> 100,0.00129,50,50,100,> 100,> 100,100
CC[C@H]1OC(=O)[C@H](C)[C@@H](OC(=O)N2C(=O)OC[C@@H]2C)[C@H](C)[C@@H](O[C@@H]2O[C@H](C)C[C@H](N(C)CC3CC3)[C@H]2O)[C@@](C)(OC)C[C@@H](C)C(=O)[C@H](C)[C@H]2N(CCc3ccc(Cl)c(Cl)c3)C(=O)O[C@]12C,3.1,–,0.78,0.78,3.1,> 100,> 100,0.78
CC[C@H]1OC(=O)[C@H](C)[C@@H](OC2C[C@@](C)(OC)[C@@H](O)[C@H](C)O2)[C@H](C)[C@@H](OC2O[C@H](C)C[C@H](N(C)CC3CC3)[C@H]2O)[C@@](C)(OC)C[C@@H](C)C(=O)[C@H](C)[C@H]2N(CCc3ccc(Cl)cc3)C(=O)O[C@]12C (some centres undefined),1.56,0.0132,–,–,–,> 100,> 100,1.56
CC[C@H]1OC(=O)[C@H](C)[C@@H](OC(=O)N2C(=O)OC[C@@H]2C)[C@H](C)[C@@H](OC2O[C@H](C)C[C@H](N(C)C3CCCC3)[C@H]2O)[C@@](C)(OC)C[C@@H](C)C(=O)[C@H](C)[C@H]2N(CCc3ccc(Cl)cc3)C(=O)O[C@]12C (some centres undefined),6.2,0.00389,3.1,3.1,12.5,> 100,> 100,3.1
CCC(C)N(CC1CC1)[C@H]1C[C@@H](C)OC(O[C@@H]2[C@@H](C)[C@H](OC3C[C@@](C)(OC)[C@@H](O)[C@H](C)O3)[C@@H](C)C(=O)O[C@H](CC)[C@@]3(C)OC(=O)N(CCc4ccc(Cl)cc4)[C@@H]3[C@@H](C)C(=O)[C@H](C)C[C@]2(C)OC)[C@@H]1O (some centres undefined),> 100,0.0275,> 100,> 100,> 100,> 100,> 100,> 100

# The remaining compounds from weak to strong by MIC [1], led by results:
MIC [1] [µg/mL],Ki [2] [µM],MIC [3] [µg/mL],MIC [4] [µg/mL],MIC [5] [µg/mL],MIC [6] [µg/mL],MIC [7] [µg/mL],MIC [8] [µg/mL],SMILES
1.56,–,0.39,0.39,1.56,100,50,0.39,CC[C@H]1OC(=O)[C@H](C)[C@@H](OC(=O)N2C(=O)OC[C@@H]2C)[C@H](C)[C@@H](OC2O[C@H](C)C[C@H](N(C)CC3CC3)[C@H]2O)[C@@](C)(OC)C[C@@H](C)C(=O)[C@H](C)[C@H]2N(CCc3ccc(F)c(Cl)c3)C(=O)O[C@]12C (some centres undefined)
0.78,–,0.02,0.1,0.78,25,25,–,CC[C@H]1OC(=O)[C@H](C)[C@@H](OC(=O)N2C(=O)OC[C@@H]2C)[C@H](C)[C@@H](OC2O[C@H](C)C[C@H](N(C)C(C)C)[C@H]2O)[C@@](C)(OC)C[C@@H](C)C(=O)[C@H](C)[C@H]2N(CCc3ccc(Cl)cc3)C(=O)O[C@]12C (some centres undefined)
0.39,0.0794,0.1,0.2,0.2,1.56,1.56,0.05,CC[C@H]1OC(=O)[C@H](C)[C@@H](OC2C[C@@](C)(OC)[C@@H](O)[C@H](C)O2)[C@H](C)[C@@H](OC2O[C@H](C)C[C@H](NC)[C@H]2O)[C@@](C)(OC)C[C@@H](C)C(=O)[C@H](C)[C@H]2N(CCc3ccc(Cl)cc3)C(=O)O[C@]12C (some centres undefined)
0.2,–,–,0.2,–,1.56,1.56,0.02,CC[C@H]1OC(=O)[C@H](C)[C@@H](OC2C[C@@](C)(OC)[C@@H](O)[C@H](C)O2)[C@H](C)[C@@H](OC2O[C@H](C)C[C@H](N(C)C(C)C)[C@H]2O)[C@@](C)(OC)C[C@@H](C)C(=O)[C@H](C)[C@H]2N(CCc3ccc(Cl)cc3)C(=O)O[C@]12C (some centres undefined)
0.1,0.191,–,0.2,0.05,0.39,0.39,0.2,CC[C@H]1OC(=O)[C@H](C)[C@@H](OC2C[C@@](C)(OC)[C@@H](O)[C@H](C)O2)[C@H](C)[C@@H](OC2O[C@H](C)C[C@H](N(C)C)[C@H]2O)[C@@](C)(OC)C[C@@H](C)C(=O)[C@H](C)[C@H]2N(CCc3ccc(Cl)cc3)C(=O)O[C@]12C (some centres undefined)
0.05,–,0.05,0.05,0.02,0.2,0.2,0.05,CC[C@H]1OC(=O)[C@H](C)[C@@H](O[C@H]2C[C@@](C)(OC)[C@@H](O)[C@H](C)O2)[C@H](C)[C@@H](O[C@@H]2O[C@H](C)C[C@H](N(C)C)[C@H]2O)[C@](C)(O)C[C@@H](C)C(=O)[C@H](C)[C@@H](O)[C@]1(C)O [ERYTHROMYCIN]
